# Measurements reported in patent US20050084546A1, “Antioxidant and antiactinic tea plant products” (priority 2003, published 2005).
# How the values were obtained:
# [1] = tested on: Cytochrome C; assay: In vitro cytochrome C oxidation-reduction assay in the presence of isolated neutrophils (antioxidant activity); format: biochemical
# Description: An in vitro cytochrome C oxidation-reduction assay conducted in the presence of isolated neutrophils is used to assess the antioxidant activity of a group of test materials comprising aqueous extracts of the inventive mixed tea blend prepared by the method of Example 3 having the concentrations indicated in Table 1, below, and known antioxidant materials, namely green tea extract, white tea extract, grape polyphenols and vitamin E, as controls. Reduction of cytochrome C by free radicals causes an increase in light absorbence at 550 nm. Cytochrome C is an ubiquitous iron-containing cellular respiratory enzyme. Singlet oxygen prevents free radical reduction and the consequent increase in light absorbance. The oxidation-reduction assay determines the ability of the test materials to control the activity of chemically generated singlet oxygen, permitting the reductive free radicals to induce increased light absorbence, which is measured.
# The assay system employed, determination of the impact of singlet oxygen on a biological entity, cytochrome C, is believed to be a useful model of in vivo activity. However, the invention is not dependent upon this or any other theory.
# [2] = tested on: Fibroblasts; assay: UV cytotoxicity assay, cell count in hemocytometer; format: cell-based
# Protocol: Fibroblasts, grown in Dulbecco medium (DM) supplemented with fetal calf serum are plated in 24 well plates at a density of 20,000 cells per well. Twelve hours after plating, fresh DM with fetal calf serum is added. After an additional 12 hours various test materials as set forth in Table 3, are added to the wells. Six, twelve and twenty four hours later, cultures are exposed to UV at varying low and high doses. The low dose is chosen to stimulate growth and cause a hyper-proliferative response, while the higher dose is chosen to induce cytotoxic effects. After 72 and 144 hours, cells are trypsinized, and counted in a hemocytometer chamber. The cytotoxicity test results using the indicated quantities of the test materials to inhibit free radical toxicity, are set forth in Table 3, below. The control is an aliquot of water.
# [3] = tested on: stratum corneum (skin cell turnover); assay: In vivo inhibition of UV-induced skin cell renewal, dansyl chloride staining technique; set-up: species or system human
# Protocol: The dansyl chloride staining technique is used to measure rates of skin cell turnover, under normal conditions and under conditions of exposure to ultraviolet light with and without protection from various test materials.
# Summarizing known procedural methods, the stratum corneum is stained with fluorescent dansyl chloride by applying semi-occlusive patches of 5% dansyl chloride milled into petrolatum for 24 hours. After assuring that the stain is completely taken up by the stratum corneum layers by viewing under a quartz mineral lamp, subjects are instructed to apply water or the test product. Skin sites are treated with the various doses of UV indicated in MED in Table 6A, below, 3 days prior to and 1 day after patching with dansyl chloride. Visual inspection of the sites under UV lamp is made until the stain disappears reflecting the time required for complete turnover of the full thickness stratum corneum. Changes in cell renewal due to test material effects and UV exposure can be expressed as a percentage change compared to water-treated or untreated controls.
# [4] = tested on: fibroblasts and keratinocytes; assay: Free radical (ROS, xanthine oxidase/hypoxanthine) cytotoxicity inhibition, MTT dye method; format: cell-based; details: about 24 hours
# Description: Xanthine oxidase and hypoxanthine, referenced “XO” in Table 2, are employed together as a system to generate free radicals such as hydrogen peroxide, the hydroxyl radical and superoxide, as is known in the art. The free radical products of xanthine oxidase and hypoxanthine referenced “ROS” hereinafter, provide a test system which can be used to model the ability of test materials to protect biological organisms against the action of free radicals.
# Test 2 determines the ability of the group of test materials employed in Test 1 to reduce ROS cytotoxicity to fibroblasts and keratinocytes. Cells are seeded in 96-well plates and grown for two days. They are then exposed for about 24 hours to hypoxanthine at 100 □ g/ml and to various concentrations of xanthine oxidase, ranging, as shown in Table 2's column headers, from 2 mU/ml to 40 mU/ml. Fresh culture medium is added after exposure to ROS and cell death is assessed by the conventional MTT dye method wherein light absorbence at 570 nm is measured. Only living cells take up the MTT dye which absorbs at the measurement wavelength. The cytotoxicity test results, using the quantity of the test materials listed to inhibit free radical toxicity, are set forth in Table 2, below. The control is an aliquot of water.
substance,measurement,setting,value
vitamin E,Inhibition of Cytochrome C Oxidation,[1]; test material 0.1 μg/ml,21%
same,Inhibition of Cytochrome C Oxidation,[1]; test material 1.0 μg/ml,15%
same,Inhibition of Cytochrome C Oxidation,[1]; test material 10 μg/ml,11%
same,Inhibition of Cytochrome C Oxidation,[1]; test material 25 μg/ml,14%
same,Cell Survival after Exposure to UV,[2]; UV 1 mJ/cm2,65%
same,Cell Survival after Exposure to UV,[2]; UV 2 mJ/cm2,42%
same,Cell Survival after Exposure to UV,[2]; UV 5 mJ/cm2,35%
same,Cell Survival after Exposure to UV,[2]; UV 10 mJ/cm2,20%
same,Hyperproliferative Effect,[3]; decrease in turnover time with UV versus no UV,41.9%
same,"Skin cell turnover, No UV Exposure","[3]; time for dansyl chloride stain to disappear (Table 5 gives turnover in days), no UV",18.1
same,"Skin cell turnover, UV Exposure","[3]; time for dansyl chloride stain to disappear (Table 5 gives turnover in days), with UV exposure",10.5
same,Protection against UV-induced hyperproliferation (in words),"[3]; topical, UV exposure",no protection
same,Cell Survival after Exposure to ROS Free Radicals,"[4]; XO 2 mU, hypoxanthine […]",89%
same,Cell Survival after Exposure to ROS Free Radicals,"[4]; XO 10 mU, hypoxanthine 100 µg/ml",47%
same,Cell Survival after Exposure to ROS Free Radicals,"[4]; XO 20 mU, hypoxanthine 100 µg/ml",25%
same,Cell Survival after Exposure to ROS Free Radicals,"[4]; XO 40 MU, hypoxanthine […]",13%
